Reference: patent US20050227978A1, “Fibrosis inhibitor” (Sumitomo Pharmaceuticals Co., Ltd., priority 2002, published 2005)

Experiments:
TGF-β = assay: Effects on the extracellular matrix (proteoglycan) production by TGF-β in NRK-49F fibroblasts; assay type: cell-based; conditions: Rattus norvegicus, NRK-49F cells, 3 ng/ml TGF-β, [35S]-proteoglycan radioactivity, 24 hours, read-out: TGF-β inhibitory rate (%); for inhibition at 3 µM: test compound 3 μM; for inhibition at 10 µM: test compound 10 μM
Procedure: Effects on the Extracellular Matrix Production by TGF-β
The effect of the compounds of Examples on the production of proteoglycan when TGF-β was added to fibroblast was evaluated.
NRK-49F cells (rat fibroblast) were cultured in Dulbecco's Modified Eagle Medium (DMEM: manufactured by GIBCO) containing 10% bovine serum, and used in this experiment. The cells were put into a 96-well plate in an amount of 2.5×10^4 cells/100 μl/well. On the next day, the medium in the plate was exchanged to the DMEM medium containing 3 ng/ml of TGF-β (manufactured by Nacalai Tesque, Inc.), 0.5 μCi/well of [^35S]-Na2SO4, and a test compound. Twenty-four hours thereafter, the supernatant was collected, and subjected to SDS-polyacrylamide gel electrophoresis (SDS-PAGE) in a conventional manner. The gel after electrophoresis was dried with a gel drier, and exposed to an imaging plate, which was analyzed with BSA2000 (manufactured by Fuji Photo Film). The radioactivity of proteoglycan to be electrophoresed was measured, and the TGF-β inhibitory rate was calculated by the following equation. TGF-β Inhibitory rate (%)=(A−B)×100/(A−C) • A: Radioactivity in the presence of TGF-β without a test compound • B: Radioactivity in the presence of TGF-β and a test compound • C: Radioactivity in the absence of TGF-β and a test compound

[1] = tested on: rat Thy-1 nephritis model; assay: Evaluation using rat Thy-1 nephritis model (kidney fibrosis); assay type: in vivo; conditions: 7 days
Procedure: The anti-fibrosis activity was evaluated on the compounds of Examples 9, 14, 110, 120 and 136 by using a rat Thy-1 nephritis model, which is an animal model for kidney fibrosis (cf., “Kidney and Dialysis”, vol. 31, p. 343-347 (1991)). Thy-1 is one of the surface antigens of thymocyte.
Male Wister rats were purchased from Charles River Japan, Inc. at an age of 3-weeks old. After pre-feeding, the animals were used in this experiment when their body weights became about 100 g. The animals were kept in a room being controlled at a temperature of 24±2° C. under a humidity of 55±10%, with an illumination cycle of light on (8:00 to 20:00). The animals were given solid diet pellets (CRF-1, Oriental Yeast Co. Ltd.) and sterilized tap water ad libitum.
Anti-Thy-1 monoclonal antibody (OX-7, Biosource International Inc.) was administered to the rats at a dose of 50 μg/100 g of body weight at the tail vein. Then, the animals were grouped into the vehicle-treated group (n=8) and the test compound-treated group (n=8) with respect to the body weight. From the day of administration of anti-Thy-1 monoclonal antibody, a test compound, which was suspended in a 0.5% carboxymethylcellulose (vehicle), […] To the vehicle-treated group, a vehicle was administered likewise.
After the administration for 7 days, the right kidney of the rats was taken out, and the content of hydroxyproline therein, which was an index for organ fibrosis, was measured according to the method of J. F. Woessner, et al. (Arch. Biochem. Biophys. Vol. 93 p440 (1961)). That is, the kidney was homogenized, and 500 μL of the suspension was dried, and thereto was added a 4N aqueous sodium hydroxide solution (225 μL). The mixture was heated on a heat block at 100° C. for 15 minutes to hydrolyze proteins, and the mixture was neutralized with a 1.4 M aqueous citric acid solution (275 μL). The mixture was centrifuged at 3000 rpm for 10 minutes at room temperature, and the supernatant was collected as a kidney extract. To the extract were added Chloramine T solution and an Ehrlich solution (which was prepared by adding n-propanol (31 ml) to p-dimethylaminobenzaldehyde (7.5 g), and further slowly adding thereto a 60% perchloric acid (13 mL), and followed by adjusting the volume to 50 ml by distilled water), and the mixture was reacted at 65° C. for 15 minutes. The OD 550 (absorbance at 550 nm) was measured, and the concentration of hydroxyproline was calculated from the analytical curve of hydroxyproline. The content of hydroxyproline thus obtained was adjusted with respect to the protein amount in the kidney extract.
Each value was expressed in average value±standard deviation of 8 animals in each group.

SMILES	inhibition at 3 µM (TGF-β) [%]	inhibition at 10 µM (TGF-β) [%]	also measured
Cc1ccc(C(=O)c2cccn2Cc2cnc3ccccc3c2)cc1 [Example 2]	33	61	
Cc1ccc(C(=O)c2cccn2Cc2ccnc3ccccc23)cc1 [Example 3]	25	38	
Cc1ccc(Cc2cccn2Cc2ccc3ccccc3n2)cc1 [Example 5]	6	51	
Cc1ccc(S(=O)(=O)n2cccc2C(O)c2cnc3ccccc3c2)cc1 (centres unmarked) [Example 6, (1-p-toluenesulfonyl-1H-pyrrol-2-yl)(3-quinolyl)methanol]	66	88	
Cc1ccc(Cn2cccc2Cc2cnc3ccccc3c2)cc1 [Example 7, 1-(4-methylbenzyl)-2-(3-quinolylmethyl)-1H-pyrrole]	44	78	
Cc1ccc(C(=O)c2cccn2Cc2cnc3cccnc3n2)cc1 [Example 8]	16	46	
Cc1ccc(C(=O)c2cccn2C/C=C/c2ccc(Cl)cc2C(=O)O)cc1 [Example 9]	88	91	Hydroxyproline content ([1]; 15 mg/kg oral once a day, right kidney, Table 2: normal rat 6.7 ± 1.6, vehicle 8.7 ± 2.0, mean ± SD, n=8): 7.2 ± 2.1 μg/mg protein
C=CCOc1ccc(C(=O)c2cccn2Cc2cnc3ccccc3c2)cc1 [Example 10]	63	86	
O=C(c1ccc(O)cc1)c1cccn1Cc1cnc2ccccc2c1 [Example 14]	40	56	Hydroxyproline content ([1]; 150 mg/kg oral once a day, right kidney, Table 2: normal rat 6.7 ± 1.6, vehicle 8.7 ± 2.0, P < 0.05 vs vehicle): 6.3 ± 1.3 μg/mg protein
Cc1ccc(C(=O)c2cccn2C/C=C/c2ccccc2C(=O)O)cc1 [Example 19]	51	72	
Cc1ccc(C(O)c2cccn2Cc2cnc3ccccc3c2)cc1 (centres unmarked) [Example 20, [1-(3-quinolylmethyl)-1H-pyrrol-2-yl](4-methylphenyl)methanol]	61	90	
Cc1ccc(Cc2cccn2Cc2cnc3ccccc3c2Cl)cc1 [Example 25]	6	74	
Cc1ccc(C(=O)c2cccn2Cc2cnc3cccc(C(N)=O)c3c2)cc1 [Example 31]	34	38	
Cc1ccc(C(=O)c2cccn2Cc2cnc3cc(Cl)ccc3c2)cc1 [Example 33]	74	91	
Cc1ccc(C(=O)c2cccn2Cc2cnc3c(C#N)cccc3c2)cc1 [Example 38]	51	40	
Cc1ccc(C(=O)c2cccn2Cc2cnc3cccc(C(=O)O)c3c2)cc1 [Example 43]	31	66	
Cc1ccc(C(=O)c2cccn2Cc2cnc3c(/C=C/C(=O)N(C)C)cccc3c2)cc1 [Example 61]	15	86	
Cc1ccc(C(=O)c2cccn2Cc2cnc3ccccc3n2)cc1 [Example 64]	43	75	

SMILES	inhibition at 3 µM (TGF-β) [%]	inhibition at 10 µM (TGF-β) [%]	also measured
Cc1ccc(C(=O)c2cccn2Cc2cnc3c(C#N)cccc3n2)cc1 [Example 66]	88	94	
Cc1ccc(C(=O)c2cccn2Cc2cnc3cc(C#N)ccc3n2)cc1 [Example 67]	55	75	
Cc1ccc(C(=O)c2cccn2Cc2cnc3ncccc3n2)cc1 [Example 73]	70	85	
CN(C)C(=O)c1ccc(C(=O)c2cccn2Cc2cnc3ccccc3c2)cc1 [Example 76]	56	58	
Cc1ccc(C(=O)c2cccn2Cc2cnc3ccccc3c2)cc1OCC(O)CO (centres unmarked) [Example 83]	42	47	
Cc1ccc(C(=O)c2cccn2Cc2cnc3ccccc3c2)c(O)c1 [Example 85]	29	75	
COc1ccc(C(=O)c2cccn2Cc2cnc3ccccc3n2)cc1 [Example 91]	66	73	
O=C(c1ccc(OCCN2CCOCC2)cc1)c1cccn1Cc1cnc2ccccc2c1 [Example 97]	58	75	
COC(=O)c1cc(Cl)ccc1/C=C/Cn1cccc1C(=O)c1ccc(O)cc1 [Example 103]	55	90	
Cc1ccc(C(=O)c2cccn2Cc2cnc3nccnc3c2)cc1 [Example 105]	14	48	
Cc1ccc(C(=O)c2cc(C)cn2Cc2cnc3ccccc3c2)cc1 [Example 107]	90	95	
Cc1ccc(C(=O)c2c(C)ccn2Cc2cnc3ccccc3c2)cc1 [Example 108]	42	56	
COc1ccc(C(=O)c2cc(C)cn2C/C=C/c2ccc(Cl)cc2C(=O)O)cc1 [Example 110]			Hydroxyproline content ([1]; 1.5 mg/kg oral, kidney, Table 3: normal rat 8.2 ± 0.8, vehicle 11.8 ± 0.6, P < 0.01 vs vehicle): 10.1 ± 0.8 μg/mg protein; Hydroxyproline content ([1]; 5 mg/kg oral, kidney, Table 3: normal rat 8.2 ± 0.8, vehicle 11.8 ± 0.6, P < 0.01 vs vehicle): 9.5 ± 0.8 μg/mg protein; Hydroxyproline content ([1]; 15 mg/kg oral, kidney, Table 3: normal rat 8.2 ± 0.8, vehicle 11.8 ± 0.6, P < 0.01 vs vehicle): 9.7 ± 0.7 μg/mg protein; Hydroxyproline content ([1]; 50 mg/kg oral, kidney, Table 3: normal rat 8.2 ± 0.8, vehicle 11.8 ± 0.6, P < 0.01 vs vehicle): 9.5 ± 0.6 μg/mg protein
COC(=O)c1cc(Cl)ccc1/C=C/Cn1cc(C)cc1C(=O)c1ccc(O)cc1 [Example 111]	90	118	
Cc1ccc(C(=O)c2cc(C=O)cn2C/C=C/c2ccc(Cl)cc2C(=O)O)cc1 [Example 112]	23	73	
Cc1ccc(C(=O)c2cccn2C/C=C/c2ccc(Cl)cc2C(=O)NS(C)(=O)=O)cc1 [Example 115]	46	56	
CNC(=O)c1cc(Cl)ccc1/C=C/Cn1cccc1C(=O)c1ccc(C)cc1 [Example 117]	71	83	
